Counter-ions that a name gives are not always drawn. Blank lines part the entries; values can stand above or below the molecule they belong to.
Legend:
[1] = target: JAK1 (Homo sapiens (Human), UniProt P23458); test: Jak biochemical HTRF assay, JAK1; conditions: HTRF biochemical assay, recombinant GST-tagged catalytic domain; read-out: JAK1 IC50
[2] = target: JAK2 (Homo sapiens (Human), UniProt O60674); test: Jak biochemical HTRF assay, JAK2; conditions: HTRF biochemical assay, recombinant GST-tagged catalytic domain; read-out: JAK2 IC50
JAK2, sequence (O60674 849-1124): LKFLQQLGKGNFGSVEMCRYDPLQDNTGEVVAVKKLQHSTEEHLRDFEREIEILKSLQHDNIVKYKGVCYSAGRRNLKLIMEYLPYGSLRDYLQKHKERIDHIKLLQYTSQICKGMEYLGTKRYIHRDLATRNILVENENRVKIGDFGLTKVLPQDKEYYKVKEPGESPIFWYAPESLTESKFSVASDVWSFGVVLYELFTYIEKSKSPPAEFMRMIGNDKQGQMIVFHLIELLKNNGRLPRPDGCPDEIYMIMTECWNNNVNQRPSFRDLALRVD

JAK1, sequence (P23458 875-1153): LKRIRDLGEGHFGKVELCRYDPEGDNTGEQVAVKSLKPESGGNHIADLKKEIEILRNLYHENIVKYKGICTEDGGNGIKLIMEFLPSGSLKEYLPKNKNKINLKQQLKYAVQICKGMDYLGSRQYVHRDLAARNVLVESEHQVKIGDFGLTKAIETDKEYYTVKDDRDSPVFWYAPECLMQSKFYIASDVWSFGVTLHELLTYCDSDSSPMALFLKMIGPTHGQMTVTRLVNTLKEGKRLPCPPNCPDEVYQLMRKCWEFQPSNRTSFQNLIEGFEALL

SMILES: CS(=O)(=O)c1ccc(Nc2nn([C@@H]3CCCC[C@H]3C#N)c3cc[nH]c(=O)c23)cc1 [Example 3-4, (1R,2R)-2-(3-{[4-(methylsulfonyl)phenyl]amino}-4-oxo-4,5-dihydro-1H-pyrazolo[4,3-c]pyridin-1-yl)cyclohexanecarbonitrile]
IC50 [1]: 9.4 nM | IC50 [2]: 16 nM

SMILES: N#C[C@H]1CCCC[C@@H]1n1nc(Nc2ccc(S(=O)(=O)NCC3CC3)cc2)c2c(=O)[nH]ccc21 [Example 3-20, 4-({1-[(1S,2S)-2-cyanocyclohexyl]-4-oxo-4,5-dihydro-1H-pyrazolo[4,3-c]pyridin-3-yl}amino)-N-(cyclopropylmethyl)benzene-sulfonamide]
IC50 [1]: 0.13 nM | IC50 [2]: 0.6 nM

SMILES: N#C[C@H]1CCCC[C@@H]1n1nc(Nc2cccc([C@H](N)C(F)(F)F)c2)c2c(=O)[nH]ccc21 [Example 7-1, (1S,2S)-2-(3-((3-((S)-1-Amino-2,2,2-trifluoroethyl)phenyl)amino)-4-oxo-4,5-dihydro-H-pyrazolo[4,3-c]pyridin-1-yl)cyclohexanecarbonitrileecarbonitrile]
IC50 [1]: 0.61 nM | IC50 [2]: 1.5 nM

SMILES: N#C[C@H]1CCCC[C@@H]1n1nc(Nc2ccc(-c3noc(=O)[nH]3)cc2)c2c(=O)[nH]ccc21 [Example 15-17, (1S,2S)-2-(4-oxo-3-{[4-(5-oxo-4,5-dihydro-1,2,4-oxadiazol-3-yl)phenyl]amino}-4,5-dihydro-1H-pyrazolo[4,3-c]pyridin-1-yl)cyclohexanecarbonitrile]
IC50 [1]: 0.17 nM | IC50 [2]: 2.9 nM

SMILES: N#C[C@H]1CCCC[C@@H]1n1nc(Nc2cccc(CNC(=O)c3ncccn3)c2)c2c(=O)[nH]ccc21 [Example 3-17, N-[3-({1-[(1S,2S)-2-cyanocyclohexyl]-4-oxo-4,5-dihydro-1H-pyrazolo[4,3-c]pyridin-3-yl}amino)benzyl]pyrimidine-2-carboxamide]
IC50 [1]: 0.91 nM | IC50 [2]: 5.8 nM

SMILES: CC(C)C(c1ccc(Nc2nn([C@H]3CCCC[C@@H]3C#N)c3cc[nH]c(=O)c23)cc1)n1cc(C(=O)OC(C)(C)C)nn1 (single isomer, unassigned) [Example 15-57, tert-butyl 1-{(1S or 1R)-1-[4-({1-[(1S,2S)-2-cyanocyclohexyl]-4-oxo-4,5-dihydro-1H-pyrazolo[4,3-c]pyridin-3-yl}amino)phenyl]-2-methylpropyl}-1H-1,2,3-triazole-4-carboxylate]
IC50 [1]: 0.62 nM | IC50 [2]: 1.2 nM

SMILES: N#C[C@H]1CCCC[C@@H]1n1nc(Nc2ccc(C3(N)CCC3)cc2)c2c(=O)[nH]ccc21 [Example 12-2, (1S,2S)-2-(3-((4-(1-aminocyclobutyl)phenyl)amino)-4-oxo-4,5-dihydro-1H-pyrazolo[4,3-c]pyridin-1-yl)cyclohexanecarbonitrile]
IC50 [1]: 0.36 nM | IC50 [2]: 0.32 nM

SMILES: CN(C)C(=O)c1ccc(Nc2nn([C@H]3CCCC[C@@H]3C#N)c3cc[nH]c(=O)c23)cc1C1CC1 [Example 3-69, 4-({1-[(1S,2S)-2-cyanocyclohexyl]-4-oxo-4,5-dihydro-1H-pyrazolo[4,3-c]pyridin-3-yl}amino)-2-cyclopropyl-N,N-dimethylbenzamide]
IC50 [1]: 2.1 nM | IC50 [2]: 5.7 nM

SMILES: C[C@H](N[C@H]1CC[C@H](n2nc(Nc3ccc(OC(F)(F)F)cc3)c3c(=O)[nH]ccc32)[C@@H](C#N)C1)C1CC1 [Example 5-28, (1S,2S,5S)-5-(((S)-1-cyclopropylethyl)amino)-2-(4-oxo-3-((4-(trifluoromethoxy)phenyl)amino)-4,5-dihydro-1H-pyrazolo[4,3-c]pyridin-1-yl)cyclohexanecarbonitrile]
IC50 [1]: 0.5 nM | IC50 [2]: 37 nM

SMILES: CN(C(C)(C)C)S(=O)(=O)c1ccc(Nc2nn([C@H]3CCCCC[C@@H]3C#N)c3cc[nH]c(=O)c23)cc1 (single isomer, unassigned) [Example 15-48, N-tert-butyl-4-({1-[(1S,2S or 1R,2R)-2-cyanocycloheptyl]-4-oxo-4,5-dihydro-1H-pyrazolo[4,3-c]pyridin-3-yl}amino)-N-methylbenzenesulfonamide]
IC50 [1]: 19 nM | IC50 [2]: 18 nM

SMILES: COCCn1cc(-c2ccc(Nc3nn([C@H]4CCCC[C@@H]4C#N)c4cc[nH]c(=O)c34)cc2)cn1 [Example 3-145, (1S,2S)-2-[3-({4-[1-(2-methoxyethyl)-1H-pyrazol-4-yl]phenyl}amino)-4-oxo-4,5-dihydro-1H-pyrazolo[4,3-c]pyridin-1-yl]cyclohexanecarbonitrile]
IC50 [1]: 0.12 nM | IC50 [2]: 1.8 nM

SMILES: N#C[C@H]1CCCC[C@@H]1n1nc(Nc2ccc(S(=O)(=O)N3CCCCC3)cc2)c2c(=O)[nH]ccc21 [Example 3-23, (1S,2S)-2-(4-oxo-3-{[4-(piperidin-1-ylsulfonyl)phenyl]amino}-4,5-dihydro-1H-pyrazolo[4,3-c]pyridin-1-yl)cyclohexanecarbonitrile]
IC50 [1]: 0.31 nM | IC50 [2]: 0.48 nM

SMILES: N#CCC1(n2nc(Nc3ccc(C(N)C(F)F)cc3)c3c(=O)[nH]ccc32)CCCCC1 (single isomer, unassigned) [Example 9-1, (S or R)-2-(1-(3-(4-(1-Amino-2,2-difluoroethyl)phenylamino)-4-oxo-4,5-dihydro-1H-pyrazolo[4,3-c]pyridin-1-yl)cyclohexyl)acetonitrile]
IC50 [1]: 0.19 nM | IC50 [2]: 0.47 nM

SMILES: CC(C)N1Cc2cc(Nc3nn([C@H]4CCCC[C@@H]4C#N)c4cc[nH]c(=O)c34)ccc2S1(=O)=O [Example 3-79, (1S,2S)-2-(3-{[2-(1-methylethyl)-1,1-dioxido-2,3-dihydro-1,2-benzisothiazol-5-yl]amino}-4-oxo-4,5-dihydro-1H-pyrazolo[4,3-c]pyridin-1-yl)cyclohexanecarbonitrile]
IC50 [1]: 0.071 nM | IC50 [2]: 0.48 nM

SMILES: CNS(=O)(=O)c1ccc(Nc2nn([C@H]3CCCC[C@@H]3C#N)c3cc[nH]c(=O)c23)cc1 [Example 3-144, 4-({1-[(1S,2S)-2-cyanocyclohexyl]-4-oxo-4,5-dihydro-1H-pyrazolo[4,3-c]pyridin-3-yl}amino)-N-methylbenzenesulfonamide]
IC50 [1]: 0.099 nM | IC50 [2]: 0.59 nM

SMILES: N#C[C@H]1C[C@H](N2CCC2)CC[C@@H]1n1nc(Nc2ccc(C(F)(F)F)cc2)c2c(=O)[nH]ccc21 [Example 5-7, (1S,2S,5R)-5-(azetidin-1-yl)-2-(4-oxo-3-((4-(trifluoromethyl)phenyl)amino)-4,5-dihydro-1H-pyrazolo[4,3-c]pyridin-1-yl)cyclohexanecarbonitrile]
IC50 [1]: 1.4 nM | IC50 [2]: 60 nM

SMILES: N#C[C@H]1C[C@@H](N2CCC2)CC[C@@H]1n1nc(Nc2ccc(Cl)c(F)c2)c2c(=O)[nH]ccc21 [Example 5-4, (1S,2S,5S)-5-(azetidin-1-yl)-2-(3-((4-chloro-3-fluorophenyl)amino)-4-oxo-4,5-dihydro-1H-pyrazolo[4,3-c]pyridin-1-yl)cyclohexanecarbonitrile]
IC50 [1]: 1.7 nM | IC50 [2]: 31 nM

More lines, now with the values ahead:

IC50 [1]: 0.33 nM | IC50 [2]: 2.6 nM
SMILES: CC1c2cc(Nc3nn([C@H]4CCCC[C@@H]4C#N)c4cc[nH]c(=O)c34)ccc2S(=O)(=O)N1C (single isomer, unassigned) [Example 3-127, (1S,2S)-2-(3-(((R or S)-2,3-dimethyl-1,1-dioxido-2,3-dihydrobenzo[d]isothiazol-5-yl)amino)-4-oxo-4,5-dihydro-1H-pyrazolo[4,3-c]pyridin-1-yl)cyclohexanecarbonitrile]

IC50 [1]: 0.55 nM | IC50 [2]: 3.6 nM
SMILES: N#C[C@H]1CCCC[C@@H]1n1nc(Nc2ccc(-c3ncno3)cc2)c2c(=O)[nH]ccc21 [Example 15-6, (1S,2S)-2-(3-{[4-(1,2,4-oxadiazol-5-yl)phenyl]amino}-4-oxo-4,5-dihydro-1H-pyrazolo[4,3-c]pyridin-1-yl)cyclohexanecarbonitrile]

IC50 [1]: 19 nM | IC50 [2]: 14 nM
SMILES: Cc1cc(Nc2nn([C@H]3CCCCC[C@@H]3C#N)c3cc[nH]c(=O)c23)ccc1C(=O)N1CCCC1 (single isomer, unassigned) [Example 15-47, (1S,2S or 1R,2R)-2-(3-{[3-methyl-4-(pyrrolidin-1-ylcarbonyl)phenyl]amino}-4-oxo-4,5-dihydro-1H-pyrazolo[4,3-c]pyridin-1-yl)cycloheptanecarbonitrile]

IC50 [1]: 0.039 nM | IC50 [2]: 0.19 nM
SMILES: CC(C)(C)N1Cc2cc(Nc3nn([C@H]4CCCC[C@@H]4C#N)c4cc[nH]c(=O)c34)ccc2S1(=O)=O [Example 3-53, (1S,2S)-2-{3-[(2-tert-butyl-1,1-dioxido-2,3-dihydro-1,2-benzisothiazol-5-yl)amino]-4-oxo-4,5-dihydro-1H-pyrazolo[4,3-c]pyridin-1-yl}cyclohexanecarbonitrile]

IC50 [1]: 0.16 nM | IC50 [2]: 3.4 nM
SMILES: N#C[C@H]1CCCC[C@@H]1n1nc(Nc2ccc(C(=O)O)cc2)c2c(=O)[nH]ccc21 [Example 16-1, 4-((1-((1S,2S)-2-Cyanocyclohexyl)-4-oxo-4,5-dihydro-1H-pyrazolo[4,3-c]pyridin-3-yl)amino)benzoic acid, HCl]

IC50 [1]: 0.18 nM | IC50 [2]: 2.1 nM
SMILES: Cc1cn(Cc2cccc(Nc3nn([C@H]4CCCC[C@@H]4C#N)c4cc[nH]c(=O)c34)c2)nn1 [Example 3-37, (1S,2S)-2-[3-({3-[(4-methyl-1H-1,2,3-triazol-1-yl)methyl]phenyl}amino)-4-oxo-4,5-dihydro-1H-pyrazolo[4,3-c]pyridin-1-yl]cyclohexanecarbonitrile]

IC50 [1]: 0.17 nM | IC50 [2]: 2.3 nM
SMILES: Cc1cc(Nc2nn([C@H]3CCCC[C@@H]3C#N)c3cc[nH]c(=O)c23)ccc1-c1cnn(CCC#N)c1 [Example 15-18, (1S,2S)-2-[3-({4-[1-(2-cyanoethyl)-1H-pyrazol-4-yl]-3-methylphenyl}amino)-4-oxo-4,5-dihydro-1H-pyrazolo[4,3-c]pyridin-1-yl]cyclohexanecarbonitrile]

IC50 [1]: 0.17 nM | IC50 [2]: 0.17 nM
SMILES: Cc1cc(Nc2nn([C@H]3CCCC[C@@H]3C#N)c3cc[nH]c(=O)c23)ccc1C(C)(C)n1ccnn1 [Example 15-33, (1S,2S)-2-[3-({3-methyl-4-[1-methyl-1-(1H-1,2,3-triazol-1-yl)ethyl]phenyl}amino)-4-oxo-4,5-dihydro-1H-pyrazolo[4,3-c]pyridin-1-yl]cyclohexanecarbonitrile]

— patent publication US9725445B2, “Cycloalkyl nitrile pyrazolo pyridones as Janus kinase inhibitors” (Merck Sharp & Dohme Corp., priority 2013, dated 2017)
